Columns and labels:
[1] = target: human JAK2 (a.a. 828-1132) (Homo sapiens (Human), UniProt O60674); experiment: In vitro JAK kinase assay (HTRF), JAK2, for JAK2/JAK1 ratio; format: biochemical; conditions: IC50 ratio, 1 mM ATP
Procedure: (§1) The catalytic activity of JAK1, JAK2 or JAK3 was assayed by measuring the phosphorylation of a biotinylated peptide. The phosphorylated peptide was detected by homogenous time resolved fluorescence (HTRF). […] Reactions are carried out at room temperature for 1 hour and then stopped with 20 μL 45 mM EDTA, 300 nM SA-APC, 6 nM Eu-Py20 in assay buffer (Perkin Elmer, Boston, Mass.). Binding to the Europium labeled antibody takes place for 40 minutes and HTRF signal was measured on a Fusion plate reader (Perkin Elmer, Boston, Mass.).

[2] = target: human JAK1 (a.a. 837-1142) (Homo sapiens, UniProt P23458); experiment: In vitro JAK kinase assay (HTRF), JAK1; format: biochemical; conditions: 1 mM ATP
Procedure: as §1

human JAK2 (a.a. 828-1132), sequence (O60674 828-1132): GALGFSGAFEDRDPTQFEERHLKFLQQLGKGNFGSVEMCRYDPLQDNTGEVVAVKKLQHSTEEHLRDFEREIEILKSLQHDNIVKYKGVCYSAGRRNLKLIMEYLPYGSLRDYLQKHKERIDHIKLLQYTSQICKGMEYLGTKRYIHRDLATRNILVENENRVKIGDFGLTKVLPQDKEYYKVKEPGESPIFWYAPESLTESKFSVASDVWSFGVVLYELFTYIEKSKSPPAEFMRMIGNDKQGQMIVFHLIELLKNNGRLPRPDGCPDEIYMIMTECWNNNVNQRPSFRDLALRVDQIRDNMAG

Compound	JAK2/JAK1 [1]	IC50 [2]
C[C@@H](O)c1nc2cnc3ccsc3c2n1[C@H]1CC[C@H](CC#N)OC1 [Compound 5, ((2R,5S)-5-{2-[(1R)-1-hydroxyethyl]-1H-imidazo[4,5-d]thieno[3,2-b]pyridin-1-yl}tetrahydro-2H-pyran-2-yl)acetonitrile]	>10	< 100 nM
N#CC[C@]1(n2cc(-c3ncnc4[nH]ccc34)cn2)C[C@H](N2CCC(Oc3cc(CN4CC(O)C4)cc(C(F)(F)F)n3)CC2)C1 [Compound 11, {trans-3-(4-{[4-[(3-hydroxyazetidin-1-yl)methyl]-6-(trifluoromethyl)pyridin-2-yl]oxy}piperidin-1-yl)-1-[4-(7H-pyrrolo[2,3-d]pyrimidin-4-yl)-1H-pyrazol-1-yl]cyclobutyl}acetonitrile]	>10	< 10 nM
N#CC[C@]1(n2cc(-c3ncnc4[nH]ccc34)cn2)C[C@H](N2CCC(Oc3cc(CN4CCC[C@H]4CO)cc(C(F)(F)F)n3)CC2)C1 [Compound 12, {trans-3-(4-{[4-{[(2S)-2-(hydroxymethyl)pyrrolidin-1-yl]methyl}-6-(trifluoromethyl)pyridin-2-yl]oxy}piperidin-1-yl)-1-[4-(7H-pyrrolo[2,3-d]pyrimidin-4-yl)-1H-pyrazol-1-yl]cyclobutyl}acetonitrile]	>10	< 10 nM
N#CC[C@]1(n2cc(-c3ncnc4[nH]ccc34)cn2)C[C@H](N2CCC(Oc3cc(CN4CCC[C@@H]4CO)cc(C(F)(F)F)n3)CC2)C1 [Compound 13, {trans-3-(4-{[4-{[(2R)-2-(hydroxymethyl)pyrrolidin-1-yl]methyl}-6-(trifluoromethyl)pyridin-2-yl]oxy}piperidin-1-yl)-1-[4-(7H-pyrrolo[2,3-d]pyrimidin-4-yl)-1H-pyrazol-1-yl]cyclobutyl}acetonitrile]	>10	< 10 nM
C[C@H](NC(=O)c1cc(F)c(N2CC(CC#N)(n3cc(-c4ncnc5[nH]ccc45)cn3)C2)cc1F)C(F)(F)F [Compound 16, 4-{3-(cyanomethyl)-3-[4-(7H-pyrrolo[2,3-d]pyrimidin-4-yl)-1H-pyrazol-1-yl]azetidin-1-yl}-2,5-difluoro-N-[(1S)-2,2,2-trifluoro-1-methylethyl]benzamide]	>10	< 10 nM
N#CCC1(n2cc(-c3ncnc4[nH]ccc34)cn2)CN([C@H]2CC[C@@H](Oc3cc(CCO)nc(C(F)(F)F)n3)CC2)C1 [Compound 18, {1-(cis-4-{[6-(2-hydroxyethyl)-2-(trifluoromethyl)pyrimidin-4-yl]oxy}cyclohexyl)-3-[4-(7H-pyrrolo[2,3-d]pyrimidin-4-yl)-1H-pyrazol-1-yl]azetidin-3-yl}acetonitrile]	>10	< 10 nM
CCNCc1cc(O[C@H]2CC[C@@H](N3CC(CC#N)(n4cc(-c5ncnc6[nH]ccc56)cn4)C3)CC2)nc(C(F)(F)F)c1 [Compound 19, {1-(cis-4-{[4-[(ethylamino)methyl]-6-(trifluoromethyl)pyridin-2-yl]oxy}cyclohexyl)-3-[4-(7H-pyrrolo[2,3-d]pyrimidin-4-yl)-1H-pyrazol-1-yl]azetidin-3-yl}acetonitrile]	>10	< 10 nM
CC(C)(O)c1cc(O[C@H]2CC[C@@H](N3CC(CC#N)(n4cc(-c5ncnc6[nH]ccc56)cn4)C3)CC2)nc(C(F)(F)F)c1 [Compound 20, {1-(cis-4-{[4-(1-hydroxy-1-methylethyl)-6-(trifluoromethyl)pyridin-2-yl]oxy}cyclohexyl)-3-[4-(7H-pyrrolo[2,3-d]pyrimidin-4-yl)-1H-pyrazol-1-yl]azetidin-3-yl}acetonitrile]	>10	< 10 nM
N#CCC1(n2cc(-c3ncnc4[nH]ccc34)cn2)CN([C@H]2CC[C@@H](Oc3cc(CN4CC[C@@H](O)C4)cc(C(F)(F)F)n3)CC2)C1 [Compound 21, {1-(cis-4-{[4-{[(3R)-3-hydroxypyrrolidin-1-yl]methyl}-6-(trifluoromethyl)pyridin-2-yl]oxy}cyclohexyl)-3-[4-(7H-pyrrolo[2,3-d]pyrimidin-4-yl)-1H-pyrazol-1-yl]azetidin-3-yl}acetonitrile]	>10	< 10 nM
N#CCC1(n2cc(-c3ncnc4[nH]ccc34)cn2)CN([C@H]2CC[C@@H](Oc3cc(CN4CC[C@H](O)C4)cc(C(F)(F)F)n3)CC2)C1 [Compound 22, {1-(cis-4-{[4-{[(3S)-3-hydroxypyrrolidin-1-yl]methyl}-6-(trifluoromethyl)pyridin-2-yl]oxy}cyclohexyl)-3-[4-(7H-pyrrolo[2,3-d]pyrimidin-4-yl)-1H-pyrazol-1-yl]azetidin-3-yl}acetonitrile]	>10	< 10 nM
C[C@@H](CO)NCc1cc(OC2CCN([C@H]3C[C@](CC#N)(n4cc(-c5ncnc6[nH]ccc56)cn4)C3)CC2)nc(C(F)(F)F)c1 [Compound 23, {trans-3-(4-{[4-({[(1S)-2-hydroxy-1-methylethyl]amino}methyl)-6-(trifluoromethyl)pyridin-2-yl]oxy}piperidin-1-yl)-1-[4-(7H-pyrrolo[2,3-d]pyrimidin-4-yl)-1H-pyrazol-1-yl]cyclobutyl}acetonitrile]	>10	< 10 nM
C[C@@H](O)CNCc1cc(OC2CCN([C@H]3C[C@](CC#N)(n4cc(-c5ncnc6[nH]ccc56)cn4)C3)CC2)nc(C(F)(F)F)c1 [Compound 24, {trans-3-(4-{[4-({[(2R)-2-hydroxypropyl]amino}methyl)-6-(trifluoromethyl)pyridin-2-yl]oxy}piperidin-1-yl)-1-[4-(7H-pyrrolo[2,3-d]pyrimidin-4-yl)-1H-pyrazol-1-yl]cyclobutyl}acetonitrile]	>10	< 10 nM
C[C@H](O)CNCc1cc(OC2CCN([C@H]3C[C@](CC#N)(n4cc(-c5ncnc6[nH]ccc56)cn4)C3)CC2)nc(C(F)(F)F)c1 [Compound 25, {trans-3-(4-{[4-({[(2S)-2-hydroxypropyl]amino}methyl)-6-(trifluoromethyl)pyridin-2-yl]oxy}piperidin-1-yl)-1-[4-(7H-pyrrolo[2,3-d]pyrimidin-4-yl)-1H-pyrazol-1-yl]cyclobutyl}acetonitrile]	>10	< 10 nM
N#CC[C@]1(n2cc(-c3ncnc4[nH]ccc34)cn2)C[C@H](N2CCC(Oc3cc(CCO)cc(C(F)(F)F)n3)CC2)C1 [Compound 26, {trans-3-(4-{[4-(2-hydroxyethyl)-6-(trifluoromethyl)pyridin-2-yl]oxy}piperidin-1-yl)-1-[4-(7H-pyrrolo[2,3-d]pyrimidin-4-yl)-1H-pyrazol-1-yl]cyclobutyl}acetonitrile]	>10	< 10 nM

Further lines, results first:

JAK2/JAK1 [1]	IC50 [2]	Compound
>10	< 10 nM	N#CCC(C1CCN(c2cccc(Cl)n2)C1)n1cc(-c2ncnc3[nH]ccc23)cn1 (single isomer, unassigned) [Compound 6, 3-[1-(6-chloropyridin-2-yl)pyrrolidin-3-yl]-3-[4-(7H-pyrrolo[2,3-d]pyrimidin-4-yl)-1H-pyrazol-1-yl]propanenitrile]
>10	< 10 nM	N#CCC1(n2cc(-c3ncnc4[nH]ccc34)cn2)CN(C2CCN(C(=O)Nc3ccc(F)cc3C(F)(F)F)CC2)C1 [Compound 2, 4-{3-(Cyanomethyl)-3-[4-(7H-pyrrolo[2,3-d]pyrimidin-4-yl)-1H-pyrazol-1-yl]azetidin-1-yl}-N-[4-fluoro-2-(trifluoromethyl)phenyl]piperidine-1-carboxamide]
>10	< 10 nM	N#CCC1(n2cc(-c3ncnc4[nH]ccc34)cn2)CN(C2CCN(C(=O)c3ccnc(C(F)(F)F)n3)CC2)C1 [Compound 3, [3-[4-(7H-pyrrolo[2,3-d]pyrimidin-4-yl)-1H-pyrazol-1-yl]-1-(1-{[2-(trifluoromethyl)pyrimidin-4-yl]carbonyl}piperidin-4-yl)azetidin-3-yl]acetonitrile]
>10	< 10 nM	N#CCC(C1CCN(c2nc3cccnc3o2)C1)n1cc(-c2ncnc3[nH]ccc23)cn1 (stereo not drawn) [Compound 7, 3-(1-[1,3]oxazolo[5,4-b]pyridin-2-ylpyrrolidin-3-yl)-3-[4-(7H-pyrrolo[2,3-d]pyrimidin-4-yl)-1H-pyrazol-1-yl]propanenitrile]
>10	< 10 nM	N#CCC(CN1CCN(C(=O)c2ccc(C#N)cc2F)CC1)n1cc(-c2ncnc3[nH]ccc23)cn1 (stereo not drawn) [Compound 8, 4-[(4-{3-cyano-2-[4-(7H-pyrrolo[2,3-d]pyrimidin-4-yl)-1H-pyrazol-1-yl]propyl}piperazin-1-yl)carbonyl]-3-fluorobenzonitrile]
>10	< 10 nM	N#CCC(CN1CCN(C(=O)c2ccc(C#N)cc2F)CC1)n1ccc(-c2ncnc3[nH]ccc23)c1 (stereo not drawn) [Compound 9, 4-[(4-{3-cyano-2-[3-(7H-pyrrolo[2,3-d]pyrimidin-4-yl)-1H-pyrrol-1-yl]propyl}piperazin-1-yl)carbonyl]-3-fluorobenzonitrile]
>10	< 10 nM	N#CC[C@]1(n2cc(-c3ncnc4[nH]ccc34)cn2)C[C@H](N2CCN(C(=O)c3ccnc(C(F)(F)F)n3)CC2)C1 [Compound 10, [trans-1-[4-(7H-pyrrolo[2,3-d]pyrimidin-4-yl)-1H-pyrazol-1-yl]-3-(4-{[2-(trifluoromethyl)pyrimidin-4-yl]carbonyl}piperazin-1-yl)cyclobutyl]acetonitrile]
